Test results published in patent publication US20240294551A1 (AMGEN INC., priority 2022, published 2024).

Columns and labels:
[1] = tested on: Phosphorylation of ERK1/2 in AsPC-1 cells; test: Phospho-ERK1/2 MSD Assay; type: cell-based, human; settings: Homo sapiens, ASPC1, 2 h, read-out: 2 h p-ERK (AsPC-1 cells), IC50
In short: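 Read-out: MSD electrochemiluminescent detection of phosphorylated ERK1/2 in whole-cell lysates, fitted to a 4-parameter logistic curve for IC50. Prior to lysis, AsPC-1 cells (25,000 per well) received a 2 h compound dose-response at 37 °C.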

[2] = tested on: AsPC-1 cells; test: AsPC-1 CTG Assay (CellTiter-Glo cell viability); type: cell-based, human; settings: Homo sapiens, ASPC1, 72 h, AsPC-1, 72 h; first value of the cell; read-out: G12D/C/V Cell Proliferation CTG (72 h) AsPC-1
In short: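 Human pancreatic AsPC-1 or colon SW620 cells in RPMI 1640 with 10% FBS, seeded overnight, then exposed to serially diluted compound for 72 h at 37 °C. CellTiter-Glo luminescence normalized to DMSO control; IC50 from a 4-parameter logistic model.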

[3] = tested on: SW620 cells; test: SW620 CTG Assay (CellTiter-Glo cell viability); type: cell-based, human; settings: Homo sapiens, SW-620; SW620, 72 h; third value of the cell; read-out: G12D/C/V Cell Proliferation CTG (72 h) SW620
Method: AsPC-1 and SW620 CTG Assay Protocols
AsPC-1 (human pancreatic adenocarcinoma; ATCC CRL-1682) or SW620 (human colon adenocarcinoma; ATCC CCL-227) cells were cultured in RPMI 1640 medium containing 10% fetal bovine serum and 1× penicillin/streptomycin/L-glutamine. Cells were seeded in 384-well plates at a density of 3.33E+04 cells/mL and incubated at 37° C., 5% CO2, overnight. Serially-diluted compound or DMSO was added to the cells, and plates were incubated at 37° C., 5% CO2 for 72 h. Cell viability was measured using a CellTiter-Glo® Luminescent Cell Viability Assay kit (Promega) according to the manufacturer's protocol. The luminescence signal of treated samples was normalized to DMSO control, and data were analyzed using a 4-parameter logistic model to calculate IC50 values.

[4] = tested on: MIA PaCa-2 cells; test: MIA PaCa-2 CTG Assay (CellTiter-Glo cell viability); type: cell-based, human; settings: Homo sapiens; Mia PaCa-2, 72 h; second value of the cell; read-out: G12D/C/V Cell Proliferation CTG (72 h) Mia PaCa-2
In short: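 Human pancreatic carcinoma cells in RPMI 1640 with 10% FBS, seeded at 1.67E+04 cells/mL and left overnight, were treated with serially diluted compound for 72 h at 37° C, 5% CO2. Viability was read by CellTiter-Glo luminescence normalized to DMSO; IC50 came from a 4-parameter logistic fit.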

[5] = molecular target: His-tagged KRAS G12D protein (Homo sapiens (Human), UniProt P01116, G12D); test: KRAS G12D TR-FRET Assay; type: binding; settings: read-out: KRAS G12D Binding IC50
His-tagged KRAS G12D protein, sequence (P01116 other isoform, or with tags, fused parts or gaps G12D): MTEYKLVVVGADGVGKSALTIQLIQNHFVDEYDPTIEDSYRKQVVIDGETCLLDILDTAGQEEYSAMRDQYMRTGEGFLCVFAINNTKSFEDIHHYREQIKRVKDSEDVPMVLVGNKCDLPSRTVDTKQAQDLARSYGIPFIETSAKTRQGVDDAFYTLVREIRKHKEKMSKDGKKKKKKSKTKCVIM
In short: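 His-tagged KRAS G12D (diluted to 20 nM in pH 7.4 HEPES buffer with 10 mM MgCl2 and 10 μM GDP) was preincubated with titrated compound for 30 min at room temperature. Biotinylated KRPep-2d peptide (diluted to 20 nM) was then added for 1 h, and displacement was monitored by TR-FRET.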

[6] = molecular target: GDP-bound KRAS protein (aa 1-169), containing both G12D and C118A amino acid substitutions (Homo sapiens (Human), UniProt P01116, C118A/G12D); test: KRAS G12D Coupled Nucleotide Exchange Assay; type: biochemical; settings: read-out: KRAS G12D Coupled Exchange IC50
GDP-bound KRAS protein (aa 1-169), containing both G12D and C118A amino acid substitutions, sequence (P01116 other isoform, or with tags, fused parts or gaps G12D/C118A): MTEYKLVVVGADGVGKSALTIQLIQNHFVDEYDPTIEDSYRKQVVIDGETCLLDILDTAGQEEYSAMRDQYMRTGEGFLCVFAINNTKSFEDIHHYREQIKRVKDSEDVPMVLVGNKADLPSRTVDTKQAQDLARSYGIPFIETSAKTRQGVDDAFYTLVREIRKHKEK

SMILES	IC50 [1] [nM]	IC50 [2] [nM]	IC50 [3] [nM]	IC50 [4] [nM]	IC50 [5] [nM]	IC50 [6] [nM]
CN(C)CC1(COc2nc3c4cnc(c(F)c4n2)-c2c(c(Cl)cc4[nH]ncc24)CCCOC(=O)O[C@@H]2COCCN3C2)CC1 [Example 195, (26S)-18-chloro-4-((1-((dimethylamino)methyl)cyclopropyl)methoxy)-32-fluoro-23,25,28-trioxa-1,3,5,9,14,15-hexaazahexacyclo[24.4.1.1~6,10~.0~2,7~.0~11,19~.0~12,16~]dotriaconta-2,4,6,8,10(32),11,13,16,18-nonaen-24-one]	6	67	50	31	–	–
Cc1cc2[nH]ncc2c2c1CCCCOC[C@@H]1CCCN(C1)c1nc(OC[C@@]34CCCN3C[C@H](F)C4)nc3c(F)c-2ncc13 [Example 129, (17R)-30-Fluoro-24-(((2R,7aS)-2-fluorotetrahydro-1H-pyrrolo[1,2-a]pyrrol-7a(5H)-yl)methoxy)-9-methyl-15-oxa-5,6,21,23,25,29-hexaazahexacyclo[24.3.1.1˜17,21˜.0˜2,10˜.0˜3,7˜.0˜22,27˜]hentriaconta-1(30),2,4,7,9,22,24,26,28-nonaene bis(2,2,2-trifluoroacetate)]	20	170	67.4	90	4	2
Cc1c2ncc3c(nc(OC[C@@]45CCCN4C[C@H](F)C5)nc13)N1CCC[C@](C)(C1)NC(=O)CCCc1c(F)ccc3cc(O)cc-2c13 [Example 18, (15R)-22-Fluoro-8-(((2R,7aS)-2-fluorotetrahydro-1H-pyrrolo[1,2-a]pyrrol-7a(5H)-yl)methoxy)-27-hydroxy-15,31-dimethyl-3,7,9,11,16-pentaazahexacyclo[19.7.1.1˜2,6˜.1˜11,15˜.0˜5,10˜.0˜25,29˜]hentriaconta-1(28),2(31),3,5,7,9,21,23,25(29),26-decaen-17-one]	12	82	32	29	6	3
O=C1OCCc2c(Cl)cc3[nH]ncc3c2-c2ncc3c(nc(OC[C@@]45CCCN4C[C@H](F)C5)nc3c2F)N2CCOC[C@]3(C2)C[C@H](C3)O1 [Example 316, (1R,3R)-10-chloro-33-fluoro-24-(((2R,7aS)-2-fluorotetrahydro-1H-pyrrolo[1,2-a]pyrrol-7a(5H)-yl)methoxy)-4,6,30-trioxa-13,14,19,23,25,27-hexaazaheptacyclo[25.4.1.1~1,3~.1~18,22~.0~9,17~.0~12,16~.0~21,26~]tetratriaconta-9,11,14,16,18(33),19,21,23,25-nonaen-5-one]	6.7	54	10	13	4	3
Fc1cc2[nH]ncc2c2c1CCCCOC[C@H]1CCCCN(C1)c1nc(OC[C@@]34CCCN3C[C@H](F)C4)nc3c(F)c-2ncc13 [Example 240, (26S)-18,32-difluoro-4-(((2R,7aS)-2-fluorotetrahydro-1H-pyrrolo[1,2-a]pyrrol-7a(5H)-yl)methoxy)-24-oxa-1,3,5,9,14,15-hexaazahexacyclo[24.4.1.1~6, 10~.0~2,7~.0~11,19~.0~12,16~]dotriaconta-2,4,6(32),7,9,11,13,16,18-nonaene]	21.9	230	80	140	3	2
Fc1c2ncc3c(nc(OC[C@@]45CCCN4C[C@H](F)C5)nc13)N1CCCCC(COCCCCc3c(Cl)cc4[nH]ncc4c3-2)C1 (stereo partly shown) [Example 141]	6	120	20.2	20	2	1
O=C1OC[C@@H]2C[C@@H]2c2c(Cl)cc3[nH]ncc3c2-c2ncc3c(nc(OC[C@@]45CCCN4C[C@H](F)C5)nc3c2F)N2CCC[C@H](C2)O1 [Example 45, (11S,13R,18R)-9-Chloro-31-fluoro-25-(((2R,7aS)-2-fluorotetrahydro-1H-pyrrolo[1,2-a]pyrrol-7a(5H)-yl)methoxy)-15,17-dioxa-5,6,22,24,26,30-hexaazaheptacyclo[25.3.1.1˜18,22˜.0˜2,10˜.0˜3,7˜.0˜11,13˜.0˜23,28˜]dotriaconta-1(31),2,4,7,9,23,25,27,29-nonaen-16-one bis(2,2,2-trifluoroacetate)]	1	50	10	10	2	1
Cc1cc2[nH]ncc2c2c1CCCCC(=O)O[C@@H]1CCCN(C1)c1nc(OC[C@@]34CCCN3C[C@H](F)C4)nc3c(F)c-2ncc13 [Example 31, (17R)-30-Fluoro-24-(((2R,7aS)-2-fluorotetrahydro-1H-pyrrolo[1,2-a]pyrrol-7a(5H)-yl)methoxy)-9-methyl-16-oxa-5,6,21,23,25,29-hexaazahexacyclo[24.3.1.1˜17,21.0˜2,10˜.0˜3,7˜.0˜22,27˜]hentriaconta-1(30),2,4,7,9,22,24,26,28-nonaen-15-one bis(2,2,2-trifluoroacetate)]	33	–	133	170	–	–
Cc1cc2[nH]ncc2c2c1CCCOC(=O)O[C@]1(C)COCCN(C1)c1nc(OC[C@@H]3CCCN3C)nc3c(F)c-2ncc13 [Example 183, (26S)-32-fluoro-18,26-dimethyl-4-(((2S)-1-methyl-2-pyrrolidinyl)methoxy)-23,25,28-trioxa-1,3,5,9,14,15-hexaazahexacyclo[24.4.1.1~6,10~.0~2,7~.0~11,19~.0~12,16~]dotriaconta-2,4,6,8,10(32),11,13,16,18-nonaen-24-one]	49.3	164	44	50	8	4
Cc1cc2[nH]ncc2c2c1[C@H]1C[C@H]1COC(=O)O[C@@H]1CCCN(C1)c1nc(OC[C@@]34CCCN3C[C@H](F)C4)nc3c(F)c-2ncc13 [Example 110]	4	80	10	20	3	2
Fc1c2ncc3c(nc(OC[C@@]45CCCN4C[C@H](F)C5)nc13)N1CCC[C@@](F)(COCCCCc3c(Cl)cc4[nH]ncc4c3-2)C1 [Example 151, (17S)-9-chloro-17,30-difluoro-24-(((2R,7aS)-2-fluorotetrahydro-1H-pyrrolo[1,2-a]pyrrol-7a(5H)-yl)methoxy)-15-oxa-5,6,21,23,25,29-hexaazahexacyclo[24.3.1.1~17,21~.0~2,10~.0~3,7~.0~22,27~]hentriaconta-1(30),2,4,7,9,22,24,26,28-nonaene]	13	200	38.7	70	4	2
Fc1c2ncc3c(nc(OC[C@@]45CCCN4C[C@H](F)C5)nc13)N1CCC[C@H](C1)Cn1ncc(n1)/C=C\c1c(Cl)cc3[nH]ncc3c1-2 [Example 155, (11Z,18R)-9-chloro-31-fluoro-25-(((2R,7aS)-2-fluorotetrahydro-1H-pyrrolo[1,2-a]pyrrol-7a(5H)-yl)methoxy)-5,6,15,16,22,24,26,30,33-nonaazaheptacyclo[25.3.1.1~13,16~.1~18,22~.0~2,10~.0~3,7~.0~23,28~]tritriaconta-1(31),2,4,7,9,11,13(33),14,23,25,27,29-dodecaen]	52	720	302	–	6	5
O=C1OCCCc2c(F)cc3[nH]ncc3c2-c2ncc3c(nc(OC[C@@]45CCCN4C[C@H](F)C5)nc3c2F)N2CCC[C@H](C2)O1 [Example 112]	48	360	137	–	5	3
Fc1c2ncc3c(nc(OC[C@@]45CCCN4C[C@H](F)C5)nc13)N1CCCC(C1)c1cnn(n1)C/C=C/c1c(Cl)cc3[nH]ncc3c1-2 (stereo partly shown) [Example 149]	33	470	154	–	60	34
